Tests used:
[1] = Inhibition of Rho/MRTF/SRF pathway (unknown origin) expressed in human PC3 cells assessed as reduction in Galpha12 Q231L-stimulated MRTF-selective SRE.L promoter-driven luciferase activity after overnight incubation by luminescence assay; assay type: cell-based
PC-3 = test: Cytotoxicity against human PC3 cells assessed as reduction in cell viability up to 100 uM by WST-1 assay relative to control; assay type: cell-based
HEK-293T = test: Cytotoxicity against HEK293T cells assessed as reduction in cell viability up to 100 uM by WST-1 assay relative to control; assay type: cell-based; settings: human
[2] = Inhibition of Rho/MRTF/SRF pathway (unknown origin) expressed in HEK293T cells assessed as reduction in Galpha12-stimulated MRTF-selective SRE.L promoter-driven luciferase activity after overnight incubation by luminescence assay; assay type: cell-based, Homo sapiens
[3] = Half-life in CD-1 mouse liver microsomes at 1 uM in presence of NADPH by LC-MS/MS analysis; assay type: ADME, Microsome

IC50 [1] [nM]	IC50 [2] [nM]	t1/2 [3] [min]	Structure (SMILES)	Activity (PC-3) [%]	Activity (HEK-293T) [%]
180			Cc1cccc(-c2nnc(SCCC(=O)O)o2)c1	< 5	
25			O=C(O)CCSc1nnc(-c2ccccc2Cl)o1	< 5	
> 100000			O=C(O)CCSc1nc(-c2ccccc2)cc(=O)[nH]1		
1500			O=C(O)CCSc1nnc(-c2cccc(Cl)c2)o1	< 5	
	1.3	> 60	O=C(O)CCCSc1nnc(-c2ccc(OC3CC3)cc2Cl)o1		< 5
	20		O=C(O)CCCSc1nnc(-c2cc(C3CC3)ccc2Cl)o1		< 5
	2		COc1ccc(-c2nnc(SCCCC(=O)O)o2)c(Cl)c1		< 5
> 100000			O=C(O)CCSc1nc2ccccc2n1Cc1ccccc1		
> 100000			Cc1occc1-c1nnc(SCCC(=O)O)o1		

The next lines start with the compound.

Structure (SMILES)	IC50 [1] [nM]	IC50 [2] [nM]	t1/2 [3] [min]	Activity (PC-3) [%]	Activity (HEK-293T) [%]
c1ccc(-c2nnc(SCCC3OCCCO3)o2)cc1	> 100000				
O=C(O)CCCCSc1nnc(-c2ccc(Cl)cc2Cl)o1				< 5	
O=C(O)CCCSc1nnc(-c2ccc(C(F)(F)F)cc2)o1		46			< 5
O=C(O)CCCOc1nnc(-c2ccc(Cl)cc2Cl)o1		> 100000			
O=C(O)CCCSc1nnc(-c2ccc(OC3COC3)cc2Cl)o1		370			< 5
O=C(O)CCCSc1nnc(-c2cccc(C3CC3)c2Cl)o1		0.019			< 5
COc1ccc(-c2nnc(SCCC(=O)O)o2)cc1	160			< 5	
Cc1ccc(-c2nnc(SCCC(=O)O)o2)c(Cl)c1C		0.02			< 5
Cc1ccc(-c2nnc(SCCCC(=O)O)o2)c(Cl)c1	0.1		28	< 5	
CC(C)(F)c1ccc(-c2nnc(SCCCC(=O)O)o2)c(Cl)c1		0.5			< 5
COc1ccc(-c2nnc(SCCC(=O)O)n2C)cc1	> 100000				
O=C(O)CCSc1nnc(-c2ccc(Cl)cc2)o1	340			< 5	
CC(C)c1ccc(-c2nnc(SCCCC(=O)O)o2)c(Cl)c1		0.0007			< 5
Cc1cc(-c2nnc(SCCC(=O)O)o2)c(Cl)cc1Cl		0.32			< 5
COc1ccccc1-c1nnc(SCCC(=O)O)o1	3100			< 5	
Cc1cc(Cl)c(-c2nnc(SCCC(=O)O)o2)cc1C		0.23			< 5

Reference: ChEMBL document CHEMBL4385608, “5-Aryl-1,3,4-oxadiazol-2-ylthioalkanoic Acids: A Highly Potent New Class of Inhibitors of Rho/Myocardin-Related Transcription Factor (MRTF)/Serum Response Factor (SRF)-Mediated Gene Transcription as Potential Antifibrotic Agents for Scleroderma” (J Med Chem, 2019)
